# Laboratory results reported in patent US20040082605A1, “Use” (priority 2001, published 2004).
# Test system: gastric (corpus) ulcers induced by indomethacin
# Experiment: Indomethacin induced gastric ulcer in rats, stomach examined macroscopically
# Format: in vivo
# Conditions: male rats; for Median number of gastric (corpus) ulcers induced by indomethacin: Ulcer furrows / Median number of gastric (corpus) ulcers induced by indomethacin: Pinhead ulcers: stomach removed 5 h after indomethacin; for Median number of gastric (corpus) ulcers induced by indomethacin: Ulcer furrows: furrows >3 mm; for Median number of gastric (corpus) ulcers induced by indomethacin: Pinhead ulcers: pinhead = diameter 3 mm or less; for Effect against gastric ulcers induced by indomethacin: oral dosing 1 h before indomethacin 20 mg/kg orally, result in words
# Procedure: Groups of […] male rats were given oral doses of vehicle, 2,3-dimethyl-8-(2-ethyl-6-methylbenzylamino)-imidazo[1,2-a]pyridine-6-carboxamide(0.3, 1, 3 and 10 μmol/kg) or ranitidine (10 μmol/kg). Indomethacin 20 mg/kg, orally) was given 1 h after dosing. Stomach was removed 5 h after indomethacin and examined macroscopically Indomethacin induced ulcers in the corpus only, rumen and anthrum were unaffected. Ulcers in the corpus were classified as pinhead (diameter 3 mm or less) or furrows (>3 mm).
# [1] = oral dose 0.3 μmol/kg 1 h before indomethacin 20 mg/kg orally
# [2] = oral dose 1 μmol/kg 1 h before indomethacin 20 mg/kg orally
# [3] = oral dose 3 μmol/kg 1 h before indomethacin 20 mg/kg orally
# [4] = oral dose 10 μmol/kg 1 h before indomethacin 20 mg/kg orally
# [5] = oral doses 0.3, 1, 3 and 10 μmol/kg
SMILES,Median number of gastric (corpus) ulcers induced by indomethacin: Ulcer furrows [1],Median number of gastric (corpus) ulcers induced by indomethacin: Pinhead ulcers [1],Median number of gastric (corpus) ulcers induced by indomethacin: Ulcer furrows [2],Median number of gastric (corpus) ulcers induced by indomethacin: Pinhead ulcers [2],Median number of gastric (corpus) ulcers induced by indomethacin: Ulcer furrows [3],Median number of gastric (corpus) ulcers induced by indomethacin: Pinhead ulcers [3],Median number of gastric (corpus) ulcers induced by indomethacin: Ulcer furrows [4],Median number of gastric (corpus) ulcers induced by indomethacin: Pinhead ulcers [4],Dose at which the decrease in pinhead ulcers and ulcer furrows was maximal [5],Dose from which the decrease in pinhead ulcers and ulcer furrows was statistically significant [5],Effect against gastric ulcers induced by indomethacin
"CCc1cccc(C)c1CNc1cc(C(N)=O)cn2c(C)c(C)nc12 [2,3-dimethyl-8-(2-ethyl-6-methylbenzylamino)-imidazo[1,2-a]pyridine-6-carboxamide]",8,5,9,5,1,2,0,0,10 µmol/kg,3 µmol/kg,protective effect
"CNC(=C[N+](=O)[O-])NCCSCc1ccc(CN(C)C)o1 [Ranitidine, ranitidine, reference compound]",,,,,,,11,7,,,no effect
